Source: ChEMBL document CHEMBL3112450, “Synthesis and in vitro antitumor evaluation of primary amine substituted quinazoline linked benzimidazole” (Bioorg Med Chem Lett, 2014)

Legend:
Type in all cases: functional
[1] = Cytotoxicity against human OVCAR5 cells assessed as cell growth at 10^-8 M after 48 hrs by SRB assay; conditions: OVCAR-5, 48 h, read-out: Activity
HCC 2998 = assay: Cytotoxicity against human HCC2998 cells assessed as cell growth at 10^-4 M after 48 hrs by SRB assay; conditions: HCC 2998, 48 h, read-out: Activity
MDA-MB-435 = assay: Cytotoxicity against human MDA-MB-435 cells assessed as cell growth at 10^-6 M after 48 hrs by SRB assay; conditions: MDA-MB-435, 48 h, read-out: Activity
UACC-62 = assay: Cytotoxicity against human UACC62 cells assessed as cell growth at 10^-7 M after 48 hrs by SRB assay; conditions: UACC-62, 48 h, read-out: Activity
[2] = Cytotoxicity against human UO31 cells assessed as cell growth at 10^-4 M after 48 hrs by SRB assay; conditions: UO-31, 48 h, read-out: Activity
SK-MEL-2 = assay: Cytotoxicity against human SK-MEL-2 cells assessed as cell growth at 10^-4 M after 48 hrs by SRB assay; conditions: SK-MEL-2, 48 h, read-out: Activity
IGROV-1 = assay: Cytotoxicity against human IGROV1 cells after 48 hrs by SRB assay; conditions: IGROV-1, 48 h
SF-295 = assay: Cytotoxicity against human SF295 cells assessed as cell growth at 10^-7 M after 48 hrs by SRB assay; conditions: SF-295, 48 h, read-out: Activity
NCI-H460 [3] = assay: Cytotoxicity against human NCI-H460 cells assessed as cell growth at 10^-6 M after 48 hrs by SRB assay; conditions: NCI-H460, 48 h, read-out: Activity
U-251 = assay: Cytotoxicity against human U251 cells assessed as cell growth at 10^-7 M after 48 hrs by SRB assay; conditions: U-251, 48 h, read-out: Activity
[4] = Cytotoxicity against human NCI-ADR-RES cells assessed as cell growth at 10^-7 M after 48 hrs by SRB assay; conditions: read-out: Activity
SR = assay: Cytotoxicity against human SR cells assessed as cell growth at 10^-4 M after 48 hrs by SRB assay; conditions: read-out: Activity
SF-539 = assay: Cytotoxicity against human SF539 cells assessed as cell growth at 10^-6 M after 48 hrs by SRB assay; conditions: SF-539, 48 h, read-out: Activity
BT-549 = assay: Cytotoxicity against human BT549 cells assessed as cell growth at 10^-7 M after 48 hrs by SRB assay; conditions: BT-549, 48 h, read-out: Activity
SNB-19 = assay: Cytotoxicity against human SNB19 cells assessed as cell growth at 10^-7 M after 48 hrs by SRB assay; conditions: SNB-19, 48 h, read-out: Activity
LOX IMVI = assay: Cytotoxicity against human LOXIMVI cells assessed as cell growth at 10^-8 M after 48 hrs by SRB assay; conditions: read-out: Activity
RXF 393 [5] = assay: Cytotoxicity against human RXF393 cells assessed as cell growth at 10^-8 M after 48 hrs by SRB assay; conditions: RXF 393, 48 h, read-out: Activity
CCRF-CEM = assay: Cytotoxicity against human CCRF-CEM cells assessed as cell growth at 10^-6 M after 48 hrs by SRB assay; conditions: read-out: Activity
COLO 205 [6] = assay: Cytotoxicity against human COLO205 cells assessed as cell growth at 10^-7 M after 48 hrs by SRB assay; conditions: COLO 205, 48 h, read-out: Activity
[7] = Cytotoxicity against human UO31 cells assessed as cell growth at 10^-7 M after 48 hrs by SRB assay; conditions: UO-31, 48 h, read-out: Activity
COLO 205 [8] = assay: Cytotoxicity against human COLO205 cells after 48 hrs by SRB assay; conditions: COLO 205, 48 h
[9] = Cytotoxicity against human UO31 cells after 48 hrs by SRB assay; conditions: UO-31, 48 h
[10] = Cytotoxicity against human OVCAR5 cells assessed as cell growth at 10^-6 M after 48 hrs by SRB assay; conditions: OVCAR-5, 48 h, read-out: Activity
NCI-H522 = assay: Cytotoxicity against human NCI-H522 cells assessed as cell growth at 10^-7 M after 48 hrs by SRB assay; conditions: NCI-H522, 48 h, read-out: Activity
RXF 393 [11] = assay: Cytotoxicity against human RXF393 cells after 48 hrs by SRB assay; conditions: RXF 393, 48 h
OVCAR-3 = assay: Cytotoxicity against human OVCAR3 cells assessed as cell growth at 10^-6 M after 48 hrs by SRB assay; conditions: OVCAR-3, 48 h, read-out: Activity
HOP-92 [12] = assay: Cytotoxicity against human HOP92 cells assessed as cell growth at 10^-8 M after 48 hrs by SRB assay; conditions: HOP-92, 48 h, read-out: Activity
KM12 [13] = assay: Cytotoxicity against human KM12 cells assessed as cell growth at 10^-6 M after 48 hrs by SRB assay; conditions: KM12, 48 h, read-out: Activity
NCI-H460 [14] = assay: Cytotoxicity against human NCI-H460 cells assessed as cell growth at 10^-4 M after 48 hrs by SRB assay; conditions: NCI-H460, 48 h, read-out: Activity
MCF7 = assay: Cytotoxicity against human MCF7 cells assessed as cell growth at 10^-7 M after 48 hrs by SRB assay; conditions: MCF7, 48 h, read-out: Activity
HCT-15 [15] = assay: Cytotoxicity against human HCT15 cells assessed as cell growth at 10^-6 M after 48 hrs by SRB assay; conditions: HCT-15, 48 h, read-out: Activity
SW-620 = assay: Cytotoxicity against human SW620 cells after 48 hrs by SRB assay; conditions: SW-620, 48 h
786-0 = assay: Cytotoxicity against human 786-0 cells assessed as cell growth at 10^-4 M after 48 hrs by SRB assay; conditions: 786-0, 48 h, read-out: Activity
MOLT-4 = assay: Cytotoxicity against human MOLT4 cells after 48 hrs by SRB assay; conditions: MOLT-4, 48 h
HOP-92 [16] = assay: Cytotoxicity against human HOP92 cells assessed as cell growth at 10^-4 M after 48 hrs by SRB assay; conditions: HOP-92, 48 h, read-out: Activity
KM12 [17] = assay: Cytotoxicity against human KM12 cells assessed as cell growth at 10^-8 M after 48 hrs by SRB assay; conditions: KM12, 48 h, read-out: Activity
HCT-15 [18] = assay: Cytotoxicity against human HCT15 cells assessed as cell growth at 10^-8 M after 48 hrs by SRB assay; conditions: HCT-15, 48 h, read-out: Activity
OVCAR-8 = assay: Cytotoxicity against human OVCAR8 cells assessed as growth inhibition at 10 uM after 48 hrs by SRB assay; conditions: OVCAR-8, 48 h, read-out: GI
A498 = assay: Cytotoxicity against human A498 cells assessed as growth inhibition at 10 uM after 48 hrs by SRB assay; conditions: A498, 48 h, read-out: GI

## C=CCn1c(C)nc2ccc(Nc3nc(Nc4ccc5nc(C)n(CC=C)c5c4)c4ccccc4n3)cc21
[1]
  growth at 0.01 µM: 95%
HCC 2998
  growth at 100 µM: -53%
MDA-MB-435
  growth at 1 µM: 92%
UACC-62
  growth at 0.1 µM: 94%
[2]
  growth at 100 µM: -46%
SK-MEL-2
  growth at 100 µM: -25%
IGROV-1
  GI50: 1830 nM
  TGI: 3400 nM
SF-295
  growth at 0.1 µM: 98%
NCI-H460 [3]
  growth at 1 µM: 97%
U-251
  growth at 0.1 µM: 94%
[4]
  growth at 0.1 µM: 95%
SR
  growth at 100 µM: -2%
SF-539
  growth at 1 µM: 94%
BT-549
  growth at 0.1 µM: 95%
SNB-19
  growth at 0.1 µM: 92%
LOX IMVI
  growth at 0.01 µM: 91%
RXF 393 [5]
  growth at 0.01 µM: 95%
CCRF-CEM
  growth at 1 µM: 82%
COLO 205 [6]
  growth at 0.1 µM: 101%
[7]
  growth at 0.1 µM: 80%
COLO 205 [8]
  GI50: 1430 nM
  TGI: 2740 nM
[9]
  GI50: 1360 nM
  TGI: 2880 nM
[10]
  growth at 1 µM: 94%
NCI-H522
  growth at 0.1 µM: 91%
RXF 393 [11]
  GI50: 1800 nM
  TGI: 3280 nM
OVCAR-3
  growth at 1 µM: 94%
HOP-92 [12]
  growth at 0.01 µM: 92%
KM12 [13]
  growth at 1 µM: 89%
NCI-H460 [14]
  growth at 100 µM: -28%
MCF7
  growth at 0.1 µM: 91%
HCT-15 [15]
  growth at 1 µM: 91%
SW-620
  GI50: 1500 nM
  TGI: 2940 nM
786-0
  growth at 100 µM: -18%
MOLT-4
  GI50: 1670 nM
  LC50: > 100000 nM
HOP-92 [16]
  growth at 100 µM: -47%
KM12 [17]
  growth at 0.01 µM: 96%
HCT-15 [18]
  growth at 0.01 µM: 96%

## C=CCn1c(C)nc2cc(Nc3nc(Nc4ccc5nc(C)n(CC=C)c5c4)c4ccccc4n3)ccc21
[1]
  growth at 0.01 µM: 93%
HCC 2998
  growth at 100 µM: -88%
MDA-MB-435
  growth at 1 µM: 32%
UACC-62
  growth at 0.1 µM: 98%
[2]
  growth at 100 µM: -56%
SK-MEL-2
  growth at 100 µM: -17%
IGROV-1
  GI50: 1540 nM
  TGI: 3010 nM
SF-295
  growth at 0.1 µM: 93%
NCI-H460 [3]
  growth at 1 µM: -53%
U-251
  growth at 0.1 µM: 95%
[4]
  growth at 0.1 µM: 100%
SR
  growth at 100 µM: 2%
SF-539
  growth at 1 µM: 56%
BT-549
  growth at 0.1 µM: 101%
SNB-19
  growth at 0.1 µM: 88%
LOX IMVI
  growth at 0.01 µM: 95%
RXF 393 [5]
  growth at 0.01 µM: 101%
CCRF-CEM
  growth at 1 µM: -14%
COLO 205 [6]
  growth at 0.1 µM: 101%
[7]
  growth at 0.1 µM: 86%
COLO 205 [8]
  GI50: 195 nM
  TGI: 375 nM
[9]
  GI50: 1340 nM
  LC50 (concentration causing 50% net cell kill): 5170 nM
  TGI: 2630 nM
[10]
  growth at 1 µM: 20%
NCI-H522
  growth at 0.1 µM: 90%
RXF 393 [11]
  GI50: 373 nM
  TGI: 1790 nM
OVCAR-3
  growth at 1 µM: -78%
HOP-92 [12]
  growth at 0.01 µM: 85%
KM12 [13]
  growth at 1 µM: -40%
NCI-H460 [14]
  growth at 100 µM: 1%
MCF7
  growth at 0.1 µM: 103%
HCT-15 [15]
  growth at 1 µM: 12%
SW-620
  GI50: 195 nM
  TGI: 388 nM
786-0
  growth at 100 µM: -21%
MOLT-4
  GI50: 229 nM
  LC50: > 100000 nM
  TGI: 629 nM
HOP-92 [16]
  growth at 100 µM: -84%
KM12 [17]
  growth at 0.01 µM: 96%
HCT-15 [18]
  growth at 0.01 µM: 101%

## C=CCn1c(C)nc2ccc(Nc3nc(Nc4ccc(F)cc4)nc4ccccc34)cc21
[1]
  growth at 0.01 µM: 101%
HCC 2998
  growth at 100 µM: -80%
MDA-MB-435
  growth at 1 µM: 90%
UACC-62
  growth at 0.1 µM: 95%
[2]
  growth at 100 µM: -82%
SK-MEL-2
  growth at 100 µM: -70%
IGROV-1
  GI50: 6090 nM
  LC50: 98700 nM
  TGI: 27200 nM
SF-295
  growth at 0.1 µM: 92%
NCI-H460 [3]
  growth at 1 µM: 88%
U-251
  growth at 0.1 µM: 92%
[4]
  growth at 0.1 µM: 97%
SR
  growth at 100 µM: -22%
SF-539
  growth at 1 µM: 89%
OVCAR-8
  inhibition of growth at 10 µM: 50%
BT-549
  growth at 0.1 µM: 94%
SNB-19
  growth at 0.1 µM: 93%
LOX IMVI
  growth at 0.01 µM: 97%
RXF 393 [5]
  growth at 0.01 µM: 98%
CCRF-CEM
  growth at 1 µM: 94%
COLO 205 [6]
  growth at 0.1 µM: 103%
[7]
  growth at 0.1 µM: 86%
COLO 205 [8]
  GI50: 1750 nM
  TGI: 3250 nM
[9]
  GI50: 4530 nM
  LC50 (concentration causing 50% net cell kill): 52800 nM
  TGI: 19300 nM
[10]
  growth at 1 µM: 92%
NCI-H522
  growth at 0.1 µM: 84%
RXF 393 [11]
  GI50: 1230 nM
  TGI: 2570 nM
RXF 393 [11]; read-out: LC50 (the source's name)
  CC50: 5380 nM
OVCAR-3
  growth at 1 µM: 97%
A498
  inhibition of growth at 10 µM: 40%
HOP-92 [12]
  growth at 0.01 µM: 95%
KM12 [13]
  growth at 1 µM: 94%
NCI-H460 [14]
  growth at 100 µM: -55%
MCF7
  growth at 0.1 µM: 87%
HCT-15 [15]
  growth at 1 µM: 91%
SW-620
  GI50: 2800 nM
  LC50 (concentration killing 50% of cells): > 100000 nM
  TGI: 10700 nM
786-0
  growth at 100 µM: -71%
MOLT-4
  GI50: 1770 nM
  LC50: > 100000 nM
  TGI: 6270 nM
HOP-92 [16]
  growth at 100 µM: -84%
KM12 [17]
  growth at 0.01 µM: 95%
HCT-15 [18]
  growth at 0.01 µM: 99%

## C=CCn1c(C)nc2cc(Nc3nc(NCCO)nc4ccccc34)ccc21
OVCAR-8
  inhibition of growth at 10 µM: 30%
A498
  inhibition of growth at 10 µM: 40%

## C=CCn1c(C)nc2ccc(Nc3nc(Sc4ccc(N)cc4)nc4ccccc34)cc21
OVCAR-8
  inhibition of growth at 10 µM: 30%
A498
  inhibition of growth at 10 µM: 50%
